Laboratory results as given in paper PMC9011347, “Small-Molecule Inhibitors Targeting Lipolysis in Human Adipocytes” (Journal of the American Chemical Society, 2022).

Target: T1, human ATGL (Homo sapiens, UniProt Q96AD5)
T1 construct: host or cells: Expi293 cells, crude lysate
T1 sequence (Q96AD5 1-504): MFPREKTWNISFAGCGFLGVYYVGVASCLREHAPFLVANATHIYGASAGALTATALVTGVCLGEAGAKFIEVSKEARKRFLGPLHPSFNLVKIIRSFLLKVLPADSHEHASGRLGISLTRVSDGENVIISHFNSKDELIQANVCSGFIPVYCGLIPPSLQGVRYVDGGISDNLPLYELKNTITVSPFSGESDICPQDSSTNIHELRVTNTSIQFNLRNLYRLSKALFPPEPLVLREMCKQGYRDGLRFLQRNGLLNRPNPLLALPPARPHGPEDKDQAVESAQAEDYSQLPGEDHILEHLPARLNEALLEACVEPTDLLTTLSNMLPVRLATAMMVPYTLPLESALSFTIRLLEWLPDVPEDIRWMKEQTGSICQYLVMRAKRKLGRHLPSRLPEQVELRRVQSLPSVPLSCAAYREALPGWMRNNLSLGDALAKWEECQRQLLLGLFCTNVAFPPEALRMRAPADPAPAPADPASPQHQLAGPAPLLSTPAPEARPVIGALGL
Test: TAG hydrolase assay, lysates of Expi293 cells overexpressing ATGL, purified CGI-58, radiolabeled triolein
Format: biochemical
Conditions: for Ki: NG-497 0.5 μM
Source text: We previously developed Atglistatin (Ai), a selective inhibitor of mouse ATGL,[31],[32] which is ineffective against human ATGL.[17] Ai acts as a competitive inhibitor targeting the minimal active domain of ATGL ranging from aa 1–254.[33] This domain is highly conserved in different mammalian species (∼90% identity, Table 1) and comprises the patatin-like domain, eponymous for all members of the patatin-like phospholipase domain-containing (PNPLA) protein family.[34] We first investigated the species selectivity of Ai by performing TAG hydrolase assays[35] with lysates from Expi293 cells expressing ATGL orthologues of different species. The activity of ATGL is strongly stimulated by the co-activator protein comparative gene identification-58 (CGI-58, also known as α/β hydrolase domain containing 5, ABHD5)[36] and can be suppressed by the inhibitory protein G0/G1 switch 2 (G0S2).[37] We therefore determined ATGL activity in the presence and absence of mouse CGI-58, mouse G0S2, and Ai. As shown in Figure 1a–i, all ATGL orthologues were expressed, enzymatically active, stimulated by mouse CGI-58, and inactivated by mouse G0S2. Ai inhibited mouse (Figure 1a), rat (Figure 1b), goat (Figure 1c), dog (Figure 1e), and marmoset ATGL (Figure 1f), but not pig (Figure 1d), rhesus monkey (Figure 1g), or human ATGL (Figure 1h).
To develop an inhibitor for human ATGL, we screened compounds synthesized in the course of the development of Ai.[31] Screenings were performed in the presence of purified CGI-58 using cell lysates of Expi293 cells overexpressing ATGL as a source of enzymatic activity and radiolabeled triolein as substrate as described above (Figure 1). […] In an iterative optimization process, which encompassed the synthesis and testing of >150 compounds (not shown), we varied the nature of the top aryl ring (Figure 2a). Replacement of the top phenyl group with a pyridine moiety (compound 2) led to a significant improvement in inhibitor efficacy (IC50 = 3 μM), which we interpret as a result from a smaller angle between the 1,3-arrangement of the aryl- and the ester-substituents due to the shorter C–N bond length within the pyridine group. […] The introduction of a methoxy residue at this position finally led to compound NG-497 showing an IC50 value of 1 μM.
Experimental details, materials, and methods
Expression of recombinant ATGL constructs and preparation of cell lysates. Expi293 cells were cultivated in Expi293 Expression Medium (GIBCO, Thermo Fisher Scientific, Waltham, USA) at standard conditions (37°C, 5% CO2, 95% humidified atmosphere, 125 rpm). DNA constructs containing ATGL from different species and chimeric ATGL variants in pcDNA3.1(+)myc-His C Vector were obtained from BioCat GmbH (Heidelberg, Germany). Cells were transfected with ExpiFectamine293 Transfection Kit (GIBCO) in Opti-Mem reduced serum medium (GIBCO) according to the manufacturer’s instructions. After 48 h, cells were harvested by centrifugation and washed three times with PBS. Cells were disrupted in buffer A (0.25 M sucrose, 1 mM EDTA, 1 mM dithiothreitol, 20µg/ml leupeptin, 2 µg/ml antipain, 1 µg/ml pepstatin, pH 7.0) by sonication (Virsonic 475, Virtis, Gardiner, USA). Nuclei and debris were removed by centrifugation at 1,000 g and 4°C for 10 min. Protein concentrations were determined using Bio-Rad protein assay (Bio-Rad 785, Bio-Rad Laboratories, Munich, Germany) using BSA as standard.
Expression and purification of mouse CGI-58. CGI-58 was expressed and purified as described 1. In brief, the coding sequence of mouse Cgi-58 was cloned into pHis-Sumo and co-transformed with the plasmid pTf16 expressing the chaperone Tig into E. coli BL21(DE3). Cells were cultured overnight at 37°C and 180 rpm in the presence of 40 µg/ml kanamycin and 34 µg/ml chloramphenicol. Thereafter, cells were transferred into fresh LB medium, grown until OD600 of 0.6, and expression was induced […]
by the addition of 0.5 mM IPTG. […]

Q: With `CCOc1ccc(-c2cc(OC)cc(C(=O)OC(C)C)n2)cc1` [NG-497] as the compound, how does the “inhibition of ATGL orthologue” value (NG-497 50 μM, human ATGL) read?
A: inactivates

Q: And the “inactivation of TAG hydrolase activity of ATGL (PNPLA2)” value (NG-497 100 μM)?
A: inactivated

Q: What about the “mechanism of inhibition (Lineweaver–Burk analysis)” value (increase of apparent Km, Vmax not affected) of the same compound?
A: reversible and competitive inhibition

Q: And the IC50 (inhibition of TAG hydrolase activity of human ATGL, Expi293 lysates, purified CGI-58, radiolabeled triolein)?
A: 1000 nM

Q: What about the Ki (nonlinear regression (GraphPad Prism), Figure 2c) of the same compound?
A: 490 ± 20 nM

Q: And the Ki (nonlinear regression, varying substrate concentration)?
A: 500 nM
